Test results: ChEMBL document CHEMBL2169806, “Design, synthesis, and pharmacological evaluation of N-acylhydrazones and novel conformationally constrained compounds as selective and potent orally active phosphodiesterase-4 inhibitors” (J Med Chem, 2012)
Active and inactive are the calls of the source. The calls are words filed in the database; no cut-off is given here.

Legend:
[1] = test system: Mus musculus; assay: Antiinflammatory activity in A/J mouse assessed as inhibition of LPS-induced airway elastance provoked by methacholine at 45 umol/kg, po administered 1 hr prior to LPS-challenge measured after 18 hrs relative to vehicle-treated control; assay type: functional
[2] = test system: Mus musculus; assay: Antiinflammatory activity in A/J mouse assessed as inhibition of LPS-induced airway resistance provoked by methacholine at 45 umol/kg, po administered 1 hr prior to LPS-challenge measured after 18 hrs relative to vehicle-treated control; assay type: functional
[3] = test system: Mus musculus; assay: Antiinflammatory activity in A/J mouse assessed as inhibition of eosinophils accumulation in bronchoalveolar space at 45 umol/kg, po administered 1 hr prior to LPS-challenge measured after 18 hrs relative to vehicle-treated control; assay type: functional, organism-based; conditions: Lung
[4] = test system: Mus musculus; assay: Antiinflammatory activity in A/J mouse assessed as inhibition of mononuclear cell accumulation in bronchoalveolar space at 45 umol/kg, po administered 1 hr prior to LPS-challenge measured after 18 hrs relative to vehicle-treated control; assay type: functional, organism-based; conditions: Lung
[5] = test system: Mus musculus; assay: Antiinflammatory activity in A/J mouse assessed as inhibition of neutrophil accumulation in bronchoalveolar space at 45 umol/kg, po administered 1 hr prior to LPS-challenge measured after 18 hrs relative to vehicle-treated control; assay type: functional; conditions: Lung
[6] = test system: Mus musculus; assay: Antiinflammatory activity in A/J mouse assessed as inhibition of leukocyte accumulation in bronchoalveolar space at 45 umol/kg, po administered 1 hr prior to LPS-challenge measured after 18 hrs relative to vehicle-treated control; assay type: functional; conditions: Lung
[7] = test system: Mus musculus; assay: Antiinflammatory activity in A/J mouse lung assessed as inhibition of LPS-induced IL6 production at 45 umol/kg, po administered 1 hr prior to LPS-challenge measured after 18 hrs relative to vehicle-treated control; assay type: functional
[8] = test system: Mus musculus; assay: Antiinflammatory activity in A/J mouse lung assessed as inhibition of LPS-induced TNFalpha production at 45 umol/kg, po administered 1 hr prior to LPS-challenge measured after 18 hrs relative to vehicle-treated control; assay type: functional
[9] = test system: PBMC; assay: Antiinflammatory activity in human PBMC assessed as inhibition of LPS-induced TNFalpha production after 24 hrs by ELISA; assay type: functional, cell-based
[10] = test system: Mus musculus; assay: Proemetic activity in A/J mouse assessed as reversal of xylazine/katamine-induced anesthesia at 1 to 50 umol/kg, sc administered 30 mins prior xylazine/ketamine-administration; assay type: ADME, organism-based; conditions: in vivo, 0.5 h
[11] = Inhibition of bovine PDE4 using [3H]cAMP as substrate; parameters: species or system Bos taurus

- IC50 [11]: 800 nM
Structure (SMILES): COc1ccc(C2CNC(=O)C2)cc1OC1CCCC1 (stereo unspecified) [ROLIPRAM]
- inhibition in vivo at 45 µmol/kg [1]: 96%
- inhibition in vivo at 45 µmol/kg [2]: 95%
- inhibition [3]: Active
- inhibition [4]: Active
- inhibition in vivo at 45 µmol/kg [5]: 70%
- inhibition in vivo at 45 µmol/kg [6]: 70%
- inhibition in vivo at 45 µmol/kg [7]: 54%
- inhibition in vivo at 45 µmol/kg [8]: 69%
- EC50 [9]: 130 nM
- Activity [10]: Toxic
